Activity calls are given as the source filed them. The calls are words filed in the database; no cut-off is given here.
Experiments:
[1] = species: Homo sapiens; test: Inhibition of beta amyloid-ABAD interaction by ELISA at 1 mM
[2] = Inhibition of beta amyloid-ABAD interaction by ELISA; design: species or system Homo sapiens
[3] = Partition coefficient, log P of the compound; type: physicochemical; conditions: octanol/water

| inhibition [1] [%] | Activity [1] | IC50 [2] [µM] | logP [3] | SMILES |
| --- | --- | --- | --- | --- |
|  | Active | 6.46 | 1.34 | COC(=O)c1cc(NC(=O)Nc2nc3ccc(Cl)cc3s2)ccc1O |
|  |  | 163 |  | COc1ccc2nc(NC(=O)N3CCN(c4ccc5c(c4)OCO5)CC3)sc2c1 |
| < 50 |  |  |  | CCOc1ccc2nc(NC(=O)c3cccc(OC)c3OC)sc2c1 |
| < 50 |  |  |  | O=C(Nc1nc2ccc(F)cc2s1)c1cccc(O)c1O |
|  | Active | 286 |  | COC(=O)c1ccc(NC(=O)Nc2nc3ccc(F)cc3s2)c(I)c1 |
|  |  | 15.6 |  | COC(=O)c1cc(NC(=S)Nc2nc3ccc(OC)cc3s2)ccc1O |
| < 50 |  |  |  | COc1ccc2nc(NC(=O)c3ccccc3)sc2c1 |
|  | Active | 29 |  | O=C(Nc1cc(O)c2cc(S(=O)(=O)O)ccc2c1)Nc1nc2ccc(OC(F)(F)F)cc2s1 |
|  | Active | 23 |  | O=C(Nc1nc2ccc(Cl)cc2s1)Nc1ccc(O)cc1O |
| < 50 |  |  |  | COc1cccc(C(=O)Nc2nc3ccc(F)cc3s2)c1OC |
|  | Active | 244 |  | COC(=O)c1cc(NC(=O)Nc2nc3ccc(OC(F)(F)F)cc3s2)ccc1O |
|  | Active | 6.56 | 1.15 | COC(=O)c1cc(NC(=O)Nc2nc3ccc(F)cc3s2)ccc1O |
|  | Active | 267 |  | O=C(Nc1cc(O)c2cc(S(=O)(=O)O)ccc2c1)Nc1nc2ccc(Cl)cc2s1 |
| < 50 |  |  |  | O=C(Nc1nc2ccc(Cl)cc2s1)c1ccccc1 |
|  | Active | 20.6 |  | CCOc1ccc2nc(NC(=O)Nc3ccc(O)c(C(=O)OC)c3)sc2c1 |
|  | Active | 26.6 |  | COc1ccc2nc(NC(=O)NCc3ccc4c(c3)OCO4)sc2c1 |
|  | Active | 250 |  | COc1ccc2nc(NC(=O)Nc3ccc(N4CCOCC4)cc3)sc2c1 |
|  |  | 230 |  | Cc1ccc2c(c1)sc(-c1ccc(N(C)C)cc1)[n+]2C |

The next lines start with the molecule.

| SMILES | inhibition [1] [%] | Activity [1] | IC50 [2] [µM] | logP [3] |
| --- | --- | --- | --- | --- |
| O=C(Nc1nc2ccc(O)cc2s1)c1cccc(O)c1O | < 50 |  |  |  |
| O=C(Nc1ccc(C(=O)O)c(O)c1)Nc1nc2ccc(Cl)cc2s1 |  | Active | 267 |  |
| O=C(Nc1nc2ccc(F)cc2s1)Nc1ccccc1O |  | Active | 207 |  |
| O=C(Nc1nc2ccc(Cl)cc2s1)c1cccc(O)c1O | < 50 |  |  |  |
| O=C(Nc1cccnc1)Nc1nc2ccc(OC(F)(F)F)cc2s1 |  | Active | 244 |  |
| O=C(Nc1cccnc1)Nc1nc2ccc(Cl)cc2s1 |  | Active | 247 |  |
| COc1ccc2nc(NC(=O)Nc3ccccc3)sc2c1 [FRENTIZOLE] |  |  | 200 |  |
| O=C(Nc1nc2ccc(OC(F)(F)F)cc2s1)Nc1ccc(O)cc1O |  | Active | 53.8 |  |
| O=C(Nc1ccc(O)cc1)Nc1nc2ccc(OC(F)(F)F)cc2s1 |  | Active | 47.6 |  |
| COc1ccc2nc(NC(=S)Nc3ccccc3)sc2c1 |  |  | 190 |  |
| O=C(Nc1nc2ccc(F)cc2s1)c1ccccc1 | < 50 |  |  |  |
| COC(=O)c1cc(C(=O)O)ccc1NC(=O)Nc1nc2ccc(Cl)cc2s1 |  | Active | 22.7 |  |
| COc1cccc(C(=O)Nc2nc3ccc(Cl)cc3s2)c1OC | < 50 |  |  |  |
| COC(=O)c1cc(NC(=O)Nc2nc3ccc(OC)cc3s2)ccc1O |  | Active | 26.3 |  |
| COc1ccc2nc(NC(=O)NOc3ccccc3)sc2c1 |  | Active | 316 |  |
| O=C(Nc1ccc(O)c(C(=O)O)c1)Nc1nc2ccc(F)cc2s1 |  | Active | 261 |  |
| O=C(Nc1cccnc1)Nc1nc2ccc(F)cc2s1 |  | Active | 282 |  |
| COc1ccc2nc(NC(=O)Nc3ccc(O)c(C(=O)O)c3)sc2c1 |  | Active | 29.5 |  |
| COc1ccc2nc(NC(=O)c3cccc(OC)c3OC)sc2c1 | < 50 |  |  |  |
| COc1ccc2nc(NC(=O)Nc3cccnc3)sc2c1 |  | Active | 257 |  |
| CCOc1ccc2nc(NC(=O)c3ccccc3)sc2c1 | < 50 |  |  |  |
| O=C(Nc1ccc(O)c(C(=O)O)c1)Nc1nc2ccc(OC(F)(F)F)cc2s1 |  | Active | 185 |  |
